# Laboratory results published in PMC8163506, “A novel ATP dependent dimethylsulfoniopropionate lyase in bacteria that releases dimethyl sulfide and acryloyl-CoA” (eLife, 2021).
# Target: T1, DddX (Psychrobacter sp., UniProt Z9QGV9JXN0)
# T1 construct: full length (2247 bp gene), pET-22b, C-terminal His tag, E. coli BL21(DE3); dimer in solution
# T1 sequence (Z9QGV9JXN0 1-748): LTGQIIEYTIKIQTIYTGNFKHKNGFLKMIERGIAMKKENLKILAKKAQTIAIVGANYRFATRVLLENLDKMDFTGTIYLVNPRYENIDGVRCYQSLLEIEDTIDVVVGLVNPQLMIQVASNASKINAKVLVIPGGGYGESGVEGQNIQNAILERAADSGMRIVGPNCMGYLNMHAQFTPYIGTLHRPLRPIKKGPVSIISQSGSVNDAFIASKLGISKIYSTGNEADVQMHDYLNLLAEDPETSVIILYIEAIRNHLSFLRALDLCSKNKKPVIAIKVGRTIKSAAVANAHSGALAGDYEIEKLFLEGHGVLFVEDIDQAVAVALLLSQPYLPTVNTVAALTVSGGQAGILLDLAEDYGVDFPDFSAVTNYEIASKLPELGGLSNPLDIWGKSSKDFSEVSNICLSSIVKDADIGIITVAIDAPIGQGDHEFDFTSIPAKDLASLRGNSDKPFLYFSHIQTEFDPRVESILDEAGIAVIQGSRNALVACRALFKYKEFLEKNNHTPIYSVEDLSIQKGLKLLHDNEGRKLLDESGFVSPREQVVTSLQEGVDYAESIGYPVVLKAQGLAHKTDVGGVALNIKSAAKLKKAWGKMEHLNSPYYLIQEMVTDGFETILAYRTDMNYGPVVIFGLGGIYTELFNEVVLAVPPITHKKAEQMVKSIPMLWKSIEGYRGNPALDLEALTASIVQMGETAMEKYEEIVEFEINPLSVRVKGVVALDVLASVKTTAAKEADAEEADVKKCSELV
# Assay: X-ray crystal structure of complex
# Assay type: binding
# Conditions: 1 mM ATP incubated with protein; ATP-grasp domain; crystals at pH 5.5, 18 °C
structure (smiles),measurement,value
Nc1ncnc2c1ncn2[C@@H]1O[C@H](COP(=O)(O)OP(=O)(O)OP(=O)(O)O)[C@@H](O)[C@H]1O [ATP],X-ray crystal structure of complex,we solved the crystal structure of DddX in complex with ATP
